The values below come from patent US12083202B2, “Lipophilic cosmetic compositions containing pelargonic acid esters” (Novamont S.p.A., priority 2015, dated 2024).

Each structure is given as a SMILES string.

The nature of data set [1]: Pigment dispersion: wet point and flow point. Format: physicochemical. Particulars: for Fp (flow point), amount of ester oil needed / Wp (wet point), amount of ester oil needed: grams per 100 g of pigment, Black Iron Oxide CI77499. From the text:
Black Iron Oxide particles (CI77499, commercially available as YPC335200 from Yipin) were dispersed in each of the ester oils of the present invention and in ester oil commonly used as cosmetic ingredients. Each sample of powder particles was wetted by the dropwise addition of one ester oil and then vigorously blended using a spatula until the wet point and the flow point were reached.
The wet point is defined as the minimum volume of dispersant solution to produce a soft coherent mass; the further minimum addition of dispersant solution to produce flow or falling off of the homogeneous mass from the vertical blade of a horizontally held spatula determines the flow point.
The amounts of dispersant solution (i.e. ester oil) needed to reach the wet point (Wp) and the flow point (Fp) were recorded and reported in the table below, expressed in grams per 100 g of pigment.

A short description of data set [2]: UV filters dispersion: dispersibility of a solid UV filter in ester oils. In kind it is physicochemical. Also on record: key to Filters dispersion t0 1% / Filters dispersion t0 10% / Filters dispersion t24 1% / Filters dispersion t24 10%: D=homogeneous dispersion; S=sediment deposit. As to conditions: for Filters dispersion t0 1%: 1% TiO2, storage 0 hours at 25° C.; for Filters dispersion t24 1%: 1% TiO2, storage 24 hours at 25° C.; for Filters dispersion t0 10%: 10% TiO2, storage 0 hours at 25° C.; for Filters dispersion t24 10%: 10% TiO2, storage 24 hours at 25° C.; for dispersion of Titania: in words, compared with reference solvents. How it is done: The dispersibility of a solid UV filter in different ester oils was tested using Titania (TiO2, commercially available as Titanio Biossido Anatasio from A.C.E.F.). Various ratios of filter/ester (1% and 10% TiO2) were prepared under stirring at 70° C. for 30 minutes. The dispersions were then observed after a storage period of 0 hours (t0) and 24 hours (t24) at ambient temperature (25° C.) to check for the formation of any sediment deposit. Results for each ester are shown in the table below (D=homogeneous dispersion; S=sediment deposit).

Turning to `CCCCCCCCC(=O)OCC(C)(C)COC(=O)CCCCCCCC` [Neopentyl glycol dipelargonate], in data set [1], the “Fp (flow point), amount of ester oil needed” value (“Fp (flow point), amount” below) turned out to be 166.00 g and the “Wp (wet point), amount of ester oil needed” value (from here on “Wp (wet point), amount”) is reported as 61.00 g. In data set [2], the “Filters dispersion t0 1%” value is recorded as “D”, the “Filters dispersion t24 1%” value is listed as “S/D”, the “Filters dispersion t0 10%” value is “D” and the “Filters dispersion t24 10%” value is reported as “S/D”.

As for `CCCCCCCCC(=O)OCC(COC(=O)CCCCCCCC)OC(=O)CCCCCCCC` [Glycerol tripelargonate], the “less solvent required in the final composition” value in data set [1] (from the minimum difference between Fp and Wp) was “about 30%”. Further, in data set [1], the “Fp (flow point), amount” value is on record as 100.00 g and the “Wp (wet point), amount” value was 60.00 g. The dispersion properties entry in data set [1] (in words, compared with commonly used cosmetic ingredients) is “even better than those of Caprylic/Capric Triglyceride”. Also, in data set [2], the “Filters dispersion t0 1%” value is reported as “D”, the “Filters dispersion t24 1%” value is recorded as “D”, the “Filters dispersion t0 10%” value is reported as “D” and the “Filters dispersion t24 10%” value was “S/D”. In addition, the “dispersion of Titania” value in data set [2] was “even better”.

Consider `CC(C)CCCCCCOC(=O)CCCCCC(C)C` [Isononyl Isononanoate, reference compound], for which, in data set [1], the “Fp (flow point), amount” value is reported as 145.00 g and the “Wp (wet point), amount” value was determined as 50.00 g. Further, in data set [2], the “Filters dispersion t0 1%” value is on record as “D”, the “Filters dispersion t24 1%” value is “S”, the “Filters dispersion t0 10%” value is reported as “D” and the “Filters dispersion t24 10%” value is “S”.

Consider `CCCCCCCCC(=O)OCC(COC(=O)CCCCCCCC)(COC(=O)CCCCCCCC)COC(=O)CCCCCCCC` [Pentaerythritol tetrapelargonate], for which, in data set [1], the “Fp (flow point), amount” value worked out at 132.00 g and the “Wp (wet point), amount” value came out at 62.00 g. Also, in data set [2], the “Filters dispersion t0 1%” value is on record as “D”, the “Filters dispersion t24 1%” value is on record as “D”, the “Filters dispersion t0 10%” value is given as “D” and the “Filters dispersion t24 10%” value is given as “D”. Moreover, the “dispersion of Titania” value in data set [2] was “even better”.
